From ChEMBL document CHEMBL1201862, “PubChem BioAssay data set” (2004)
pIC50: −log10 of the molar value. Activity calls are given as the source filed them.

Assays:
[1] = biological target: T1, fMet-Leu-Phe receptor (Homo sapiens, UniProt P21462); experiment: formyl peptide receptor binders – dose response (AID 519); format: functional
T1 sequence (P21462 whole entry): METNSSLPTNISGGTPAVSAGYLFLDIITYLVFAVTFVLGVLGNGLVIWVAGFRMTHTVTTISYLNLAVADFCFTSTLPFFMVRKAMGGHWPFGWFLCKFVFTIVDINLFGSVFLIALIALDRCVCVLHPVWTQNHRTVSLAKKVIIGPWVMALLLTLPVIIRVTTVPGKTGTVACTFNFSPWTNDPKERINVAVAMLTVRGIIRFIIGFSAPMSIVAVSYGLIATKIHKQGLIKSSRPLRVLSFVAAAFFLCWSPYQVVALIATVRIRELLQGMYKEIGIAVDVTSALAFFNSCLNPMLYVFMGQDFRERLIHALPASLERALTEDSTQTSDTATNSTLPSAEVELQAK

[2] = tested on: Streptococcus sp. 'group A'; experiment: Streptococcus pyogenes SK(-)GAS viability under kanamycin – luminescence, BacTiterGlo, confirmation, counter-screen for streptokinase expression inhibitor project, dose response (AID 1900); format: functional, organism-based
[3] = cells; format: functional
[4] = THP-1 cell cytotoxicity, dose response, cytotoxicity control for non-replicating M. tuberculosis project (AID 489025); format: functional
[5] = HepG2 cell cytotoxicity, dose response, cytotoxicity control for non-replicating M. tuberculosis project (AID 489018); format: functional; conditions: Mycobacterium tuberculosis
[6] = tested on: Streptococcus; experiment: GAS UMAA2166 growth inhibition – luminescence, BacTiterGlo, counter-screen for streptokinase expression inhibitor project, dose response (AID 1915); format: functional, organism-based;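 further: potency for reduction of bacterial viability or growth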
[7] = Vero E6 cell cytotoxicity, dose response, cytotoxicity control for non-replicating M. tuberculosis project, secondary assay (AID 492998); format: functional, VeroE6; conditions: Vero C1008
[8] = Trypanosoma cruzi growth suppression in host cells – NIH3T3 host cells, beta-gal luminescence, confirmation (AID 2044); format: functional, cell-based;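 further: intracellular parasites grown in NIH/3T3 mouse fibroblasts as host cells; luminescent beta-galactosidase reporter signal from transgenic T. cruzi replicating inside host cells; inhibitors lower the luminescence signal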
[9] = biological target: T2, Calpain-2 catalytic subunit (Sus scrofa, UniProt P43367); experiment: m-calpain protease blockers, concentration series – biochemical, fluorogenic peptide substrate, dose response (AID 1420); format: functional
T2 sequence (P43367 whole entry): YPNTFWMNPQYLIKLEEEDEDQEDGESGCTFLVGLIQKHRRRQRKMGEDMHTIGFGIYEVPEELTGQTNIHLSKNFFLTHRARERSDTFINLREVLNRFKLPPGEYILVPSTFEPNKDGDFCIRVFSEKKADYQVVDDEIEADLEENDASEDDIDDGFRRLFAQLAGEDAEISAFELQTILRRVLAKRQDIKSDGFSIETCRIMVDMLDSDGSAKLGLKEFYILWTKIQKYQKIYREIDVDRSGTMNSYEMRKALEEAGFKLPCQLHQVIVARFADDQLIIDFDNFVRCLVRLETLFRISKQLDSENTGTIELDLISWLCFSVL

[10] = Intein inhibitors as potential Tuberculosis drugs, a cytotoxicity screen. [Related pubchem assays (depositor defined):AID2221, AID2223, AID434968, AID435010, AID449749, AID449750, AID489010]; format: functional
[11] = biological target: T3, Replicative DNA helicase DnaB (Mycobacterium tuberculosis, UniProt P9WMR3); experiment: DnaB intein splicing inhibitors, dose response, biochemical, cell-free fluorescence (AID 449749); format: functional
T3 sequence (P9WMR3 whole entry): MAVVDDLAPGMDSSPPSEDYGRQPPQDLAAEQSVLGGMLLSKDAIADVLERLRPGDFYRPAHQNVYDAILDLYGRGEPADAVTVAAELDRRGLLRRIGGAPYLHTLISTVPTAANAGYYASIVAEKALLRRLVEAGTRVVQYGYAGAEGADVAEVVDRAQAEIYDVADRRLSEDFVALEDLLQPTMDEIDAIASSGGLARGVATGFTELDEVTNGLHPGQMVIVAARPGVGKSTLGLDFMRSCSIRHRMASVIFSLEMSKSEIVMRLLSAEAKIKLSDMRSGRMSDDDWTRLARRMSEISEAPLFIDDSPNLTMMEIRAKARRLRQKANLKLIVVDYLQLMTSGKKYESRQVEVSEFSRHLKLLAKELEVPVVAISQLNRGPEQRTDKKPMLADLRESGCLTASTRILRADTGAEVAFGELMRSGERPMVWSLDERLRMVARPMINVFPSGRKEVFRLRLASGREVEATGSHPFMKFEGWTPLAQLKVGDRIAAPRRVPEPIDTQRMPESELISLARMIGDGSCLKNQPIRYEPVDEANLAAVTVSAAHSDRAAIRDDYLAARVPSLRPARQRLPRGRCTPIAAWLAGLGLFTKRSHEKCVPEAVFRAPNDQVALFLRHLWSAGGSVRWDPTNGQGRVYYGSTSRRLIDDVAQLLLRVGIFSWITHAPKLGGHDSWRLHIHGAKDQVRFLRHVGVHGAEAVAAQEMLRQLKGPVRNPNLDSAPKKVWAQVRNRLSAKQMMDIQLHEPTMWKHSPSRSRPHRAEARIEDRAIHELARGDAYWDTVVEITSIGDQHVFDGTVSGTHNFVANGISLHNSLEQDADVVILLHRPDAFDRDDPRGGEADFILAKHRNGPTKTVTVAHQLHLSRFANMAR

[12] = biological target: T4, Protein RecA (Mycobacterium tuberculosis, UniProt P9WHJ3); experiment: Fluorescence Cell-Free Homogeneous Dose Retest to Identify Inhibitors of RecA-Intein Splicing Activity. [Related pubchem assays (depositor defined):AID2097, AID2223, AID489010, AID492950]; format: functional
T4 sequence (P9WHJ3 whole entry): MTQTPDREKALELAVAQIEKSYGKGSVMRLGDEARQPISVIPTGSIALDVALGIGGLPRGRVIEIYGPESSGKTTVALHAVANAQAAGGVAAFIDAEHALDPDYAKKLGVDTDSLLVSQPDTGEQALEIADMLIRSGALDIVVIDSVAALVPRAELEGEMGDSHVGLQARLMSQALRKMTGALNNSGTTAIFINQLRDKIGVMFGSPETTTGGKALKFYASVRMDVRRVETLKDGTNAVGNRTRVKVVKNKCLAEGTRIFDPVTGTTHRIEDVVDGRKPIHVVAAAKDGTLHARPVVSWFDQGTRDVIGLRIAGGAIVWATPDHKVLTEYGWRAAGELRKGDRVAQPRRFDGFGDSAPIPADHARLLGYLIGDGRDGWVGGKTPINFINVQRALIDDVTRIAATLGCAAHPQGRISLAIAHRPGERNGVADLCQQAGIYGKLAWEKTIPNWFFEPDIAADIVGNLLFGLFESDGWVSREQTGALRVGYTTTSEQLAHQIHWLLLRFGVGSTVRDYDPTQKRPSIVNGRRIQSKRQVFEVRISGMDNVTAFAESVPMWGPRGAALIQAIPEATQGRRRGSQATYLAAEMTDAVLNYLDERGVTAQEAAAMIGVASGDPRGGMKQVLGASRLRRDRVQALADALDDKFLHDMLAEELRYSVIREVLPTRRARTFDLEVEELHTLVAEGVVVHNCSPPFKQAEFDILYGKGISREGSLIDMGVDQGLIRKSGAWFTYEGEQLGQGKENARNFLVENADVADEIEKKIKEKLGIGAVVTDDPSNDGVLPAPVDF

[13] = NIH3T3 cell viability loss – ATP luminescence, mouse fibroblasts, counter-screen, dose response (AID 2010); format: functional, cell-based;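 further: cells exposed to compound for about 90 hours before reading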
[14] = biological target: T5, Voltage-gated N-type calcium channel alpha-1B subunit/Amyloid beta A4 precursor protein-binding family A member 1 (Homo sapiens, UniProt Q00975+Q02410); format: protein assay
T5 sequence (Q00975 whole entry): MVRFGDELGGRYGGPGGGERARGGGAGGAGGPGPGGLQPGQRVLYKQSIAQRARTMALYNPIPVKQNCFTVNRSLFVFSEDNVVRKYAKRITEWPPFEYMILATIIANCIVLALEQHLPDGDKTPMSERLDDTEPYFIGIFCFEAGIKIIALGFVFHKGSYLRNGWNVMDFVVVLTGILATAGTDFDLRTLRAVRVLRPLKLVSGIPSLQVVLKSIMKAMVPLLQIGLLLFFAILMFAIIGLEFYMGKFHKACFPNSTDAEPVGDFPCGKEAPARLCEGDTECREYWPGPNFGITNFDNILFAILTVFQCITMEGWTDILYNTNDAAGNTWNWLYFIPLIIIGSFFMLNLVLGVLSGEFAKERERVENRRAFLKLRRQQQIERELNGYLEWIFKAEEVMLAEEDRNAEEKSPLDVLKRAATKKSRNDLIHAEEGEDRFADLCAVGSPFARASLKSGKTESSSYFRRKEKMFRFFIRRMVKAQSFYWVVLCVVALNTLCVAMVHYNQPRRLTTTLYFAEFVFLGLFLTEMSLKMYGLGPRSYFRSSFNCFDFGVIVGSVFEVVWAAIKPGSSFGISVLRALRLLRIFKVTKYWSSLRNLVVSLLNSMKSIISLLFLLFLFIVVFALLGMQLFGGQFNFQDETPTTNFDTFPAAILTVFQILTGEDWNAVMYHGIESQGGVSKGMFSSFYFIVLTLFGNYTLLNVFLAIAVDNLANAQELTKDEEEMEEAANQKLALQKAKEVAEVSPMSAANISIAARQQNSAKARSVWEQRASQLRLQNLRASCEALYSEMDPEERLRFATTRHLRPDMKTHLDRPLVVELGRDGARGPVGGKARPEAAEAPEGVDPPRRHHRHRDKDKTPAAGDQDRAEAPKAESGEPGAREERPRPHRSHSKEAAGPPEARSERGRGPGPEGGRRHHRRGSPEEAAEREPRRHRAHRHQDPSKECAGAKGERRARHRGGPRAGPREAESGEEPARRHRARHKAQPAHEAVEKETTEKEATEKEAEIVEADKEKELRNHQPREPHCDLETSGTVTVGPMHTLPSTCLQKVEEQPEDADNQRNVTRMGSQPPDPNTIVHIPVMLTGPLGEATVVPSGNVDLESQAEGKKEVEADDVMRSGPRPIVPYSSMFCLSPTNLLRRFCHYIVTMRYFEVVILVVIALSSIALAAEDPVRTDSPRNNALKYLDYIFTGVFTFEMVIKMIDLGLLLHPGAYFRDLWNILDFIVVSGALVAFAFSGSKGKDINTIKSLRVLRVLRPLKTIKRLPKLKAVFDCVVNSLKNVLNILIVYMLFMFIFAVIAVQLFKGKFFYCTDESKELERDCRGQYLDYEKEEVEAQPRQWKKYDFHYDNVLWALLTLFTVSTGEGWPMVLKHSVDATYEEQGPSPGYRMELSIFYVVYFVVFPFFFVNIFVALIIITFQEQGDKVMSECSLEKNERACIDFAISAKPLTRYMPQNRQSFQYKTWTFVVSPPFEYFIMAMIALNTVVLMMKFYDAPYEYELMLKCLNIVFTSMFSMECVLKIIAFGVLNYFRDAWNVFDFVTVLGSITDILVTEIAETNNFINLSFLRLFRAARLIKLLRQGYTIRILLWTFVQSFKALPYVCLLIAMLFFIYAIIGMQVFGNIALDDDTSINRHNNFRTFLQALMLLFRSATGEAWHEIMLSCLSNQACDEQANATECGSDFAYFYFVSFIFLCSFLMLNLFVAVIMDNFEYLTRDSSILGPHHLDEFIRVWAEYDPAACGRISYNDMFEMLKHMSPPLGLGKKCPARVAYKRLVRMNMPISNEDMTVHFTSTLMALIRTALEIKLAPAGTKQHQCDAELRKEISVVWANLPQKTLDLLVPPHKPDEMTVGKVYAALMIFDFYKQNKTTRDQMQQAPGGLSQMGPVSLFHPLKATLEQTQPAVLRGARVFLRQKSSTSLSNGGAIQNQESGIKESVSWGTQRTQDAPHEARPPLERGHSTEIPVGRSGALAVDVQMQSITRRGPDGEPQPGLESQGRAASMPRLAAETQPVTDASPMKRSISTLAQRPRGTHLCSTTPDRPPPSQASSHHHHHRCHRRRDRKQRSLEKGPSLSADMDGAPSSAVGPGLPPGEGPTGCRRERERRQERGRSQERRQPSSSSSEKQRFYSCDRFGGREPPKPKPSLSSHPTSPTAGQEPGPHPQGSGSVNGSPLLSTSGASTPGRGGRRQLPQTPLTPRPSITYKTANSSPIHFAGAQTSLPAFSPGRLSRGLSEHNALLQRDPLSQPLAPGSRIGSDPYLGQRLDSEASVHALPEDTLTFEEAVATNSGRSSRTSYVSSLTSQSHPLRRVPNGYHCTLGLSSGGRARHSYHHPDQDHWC
T5 sequence (Q02410 whole entry): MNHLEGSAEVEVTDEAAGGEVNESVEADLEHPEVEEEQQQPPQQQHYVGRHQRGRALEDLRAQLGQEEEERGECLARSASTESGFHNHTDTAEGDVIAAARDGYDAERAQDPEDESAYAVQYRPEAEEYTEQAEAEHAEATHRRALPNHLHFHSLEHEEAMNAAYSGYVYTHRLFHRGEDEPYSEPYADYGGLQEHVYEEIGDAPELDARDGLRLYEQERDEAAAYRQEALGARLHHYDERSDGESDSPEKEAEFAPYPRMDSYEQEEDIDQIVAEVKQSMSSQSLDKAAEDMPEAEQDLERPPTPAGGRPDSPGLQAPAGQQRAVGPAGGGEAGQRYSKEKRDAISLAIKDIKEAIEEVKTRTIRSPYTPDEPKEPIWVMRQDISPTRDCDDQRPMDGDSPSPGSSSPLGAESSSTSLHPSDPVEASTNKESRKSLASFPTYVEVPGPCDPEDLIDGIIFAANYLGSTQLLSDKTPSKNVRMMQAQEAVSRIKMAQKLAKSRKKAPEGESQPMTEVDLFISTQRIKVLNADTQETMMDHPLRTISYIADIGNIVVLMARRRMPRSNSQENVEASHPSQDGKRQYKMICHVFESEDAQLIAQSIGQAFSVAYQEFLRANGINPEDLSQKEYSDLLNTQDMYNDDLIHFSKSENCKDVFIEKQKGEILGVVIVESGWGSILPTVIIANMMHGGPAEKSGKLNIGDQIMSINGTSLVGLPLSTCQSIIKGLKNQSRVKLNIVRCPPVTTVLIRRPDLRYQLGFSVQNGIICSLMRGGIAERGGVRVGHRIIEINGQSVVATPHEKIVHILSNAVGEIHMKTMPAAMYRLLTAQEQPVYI

[15] = biological target: T5, Voltage-gated N-type calcium channel alpha-1B subunit/Amyloid beta A4 precursor protein-binding family A member 1; format: protein assay; remark: listed apart in the source
[16] = biological target: Hexokinase (Trypanosoma brucei, UniProt Q38C41); experiment: Confirmation assay for inhibitors of Trypanosoma brucei hexokinase 1-Analogue-first series. [Related pubchem assays (depositor defined):AID1430, AID1632, AID2516, AID2560, AID2579, AID2600, AID449725, AID492951]; format: functional
Chain of Hexokinase (Q38C41 whole entry): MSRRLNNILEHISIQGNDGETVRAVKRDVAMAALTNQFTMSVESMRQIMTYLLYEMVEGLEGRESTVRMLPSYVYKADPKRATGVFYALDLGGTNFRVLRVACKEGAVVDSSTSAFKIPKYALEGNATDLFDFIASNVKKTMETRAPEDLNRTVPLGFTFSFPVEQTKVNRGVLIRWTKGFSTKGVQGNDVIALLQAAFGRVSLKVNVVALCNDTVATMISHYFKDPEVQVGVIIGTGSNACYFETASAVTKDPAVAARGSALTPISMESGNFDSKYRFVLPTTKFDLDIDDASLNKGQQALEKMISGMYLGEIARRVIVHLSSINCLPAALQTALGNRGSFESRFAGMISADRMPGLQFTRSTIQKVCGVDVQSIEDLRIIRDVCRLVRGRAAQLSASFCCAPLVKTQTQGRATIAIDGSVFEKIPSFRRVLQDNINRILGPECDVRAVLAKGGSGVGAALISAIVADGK

[17] = biological target: CAAX prenyl protease 2 (Saccharomyces cerevisiae S288c, UniProt Q03530); format: biochemical
[18] = biological target: Beta-galactosidase (Escherichia coli, UniProt Q8VNN2); format: functional
[19] = cells; format: functional, cell-based
[20] = biological target: T6, Kappa-type opioid receptor (Homo sapiens, UniProt P41145); format: functional
T6 sequence (P41145 whole entry): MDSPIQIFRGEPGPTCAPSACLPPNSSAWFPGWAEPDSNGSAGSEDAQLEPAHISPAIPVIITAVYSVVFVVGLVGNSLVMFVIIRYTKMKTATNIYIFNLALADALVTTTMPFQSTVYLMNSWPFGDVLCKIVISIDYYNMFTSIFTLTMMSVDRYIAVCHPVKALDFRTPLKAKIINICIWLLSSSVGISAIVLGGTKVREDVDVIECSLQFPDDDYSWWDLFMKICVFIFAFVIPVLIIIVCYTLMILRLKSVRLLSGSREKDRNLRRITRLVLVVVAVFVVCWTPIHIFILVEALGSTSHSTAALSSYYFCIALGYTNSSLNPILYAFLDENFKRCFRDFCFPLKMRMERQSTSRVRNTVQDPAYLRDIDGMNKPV

[21] = cells; format: functional, cell-based; remark: listed apart in the source
[22] = Luminescence Cell-Based Dose Confirmation HTS to Identify Inhibitors of Platelet Dense Granule Release. [Related pubchem assays: 1663 (Primary HTS), 1678 (Summary of Project)]; format: functional
[23] = biological target: Luciferin 4-monooxygenase (Photinus pyralis, UniProt P08659); experiment: inhibition of purified Photinus pyralis luciferase – biochemical, luminescence, dose response (AID 1891)
[24] = tested on: INS1; experiment: INS-1E survival protection against cytokine death – cell-based, luminescence, retest, dose response (AID 449756); format: functional; conditions: Rattus norvegicus;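 further: cell death triggered by IL-1 beta plus TNF-alpha plus IFN-gamma mixture; protective hits raise ATP signal compared with cytokine alone wells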
[25] = biological target: T6, Kappa-type opioid receptor; format: functional; remark: listed apart in the source
[26] = biological target: T7, Polyadenylate-binding protein 1 (Homo sapiens, UniProt P11940); experiment: MLLE domain peptide-binding blockers, IC50 – biochemical, fluorescence polarization, FITC-PAM2 peptide, dose response (AID 602259); format: functional; conditions: read-out: IC50_Mean
T7 sequence (P11940 whole entry, the tested form may be a part): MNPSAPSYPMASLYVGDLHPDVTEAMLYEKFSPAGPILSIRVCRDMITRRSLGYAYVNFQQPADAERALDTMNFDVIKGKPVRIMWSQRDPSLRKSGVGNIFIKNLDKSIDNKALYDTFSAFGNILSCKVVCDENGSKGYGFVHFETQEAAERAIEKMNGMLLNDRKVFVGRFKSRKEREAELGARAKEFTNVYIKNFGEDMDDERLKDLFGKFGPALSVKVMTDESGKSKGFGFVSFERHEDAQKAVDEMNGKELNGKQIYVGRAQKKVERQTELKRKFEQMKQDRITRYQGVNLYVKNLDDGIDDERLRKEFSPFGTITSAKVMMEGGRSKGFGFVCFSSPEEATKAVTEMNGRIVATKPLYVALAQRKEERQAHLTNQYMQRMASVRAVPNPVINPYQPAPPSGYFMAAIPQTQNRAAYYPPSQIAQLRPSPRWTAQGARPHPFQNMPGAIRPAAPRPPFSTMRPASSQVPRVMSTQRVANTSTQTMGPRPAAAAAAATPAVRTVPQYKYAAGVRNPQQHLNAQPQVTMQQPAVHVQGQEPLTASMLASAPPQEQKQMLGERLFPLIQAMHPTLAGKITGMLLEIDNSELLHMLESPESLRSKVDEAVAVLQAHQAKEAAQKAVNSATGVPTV

[27] = biological target: Eukaryotic translation initiation factor 4E (Mus musculus, UniProt P63073); experiment: blockers of eIF4G binding by eIF4E – biochemical, TR-FRET, dose response (AID 855); format: functional;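 further: potency for disrupting eIF4E binding to eIF4GI seen as loss of FRET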
Chain of Eukaryotic translation initiation factor 4E (P63073 whole entry): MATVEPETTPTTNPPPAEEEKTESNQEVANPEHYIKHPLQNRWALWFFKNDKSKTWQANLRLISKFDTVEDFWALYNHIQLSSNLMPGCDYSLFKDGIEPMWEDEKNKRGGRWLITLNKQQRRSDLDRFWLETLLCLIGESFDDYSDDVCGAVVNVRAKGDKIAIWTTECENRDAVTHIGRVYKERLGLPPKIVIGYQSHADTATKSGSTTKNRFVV

[28] = biological target: Induced myeloid leukemia cell differentiation protein Mcl-1 (Homo sapiens, UniProt Q07820); format: functional
[29] = biological target: T7, Polyadenylate-binding protein 1; experiment: MLLE binding blockers, Cy5 peptide tracer – biochemical, fluorescence polarization, Cy5-PAM2 peptide, secondary, miRNA deadenylation inhibitor project, dose response (AID 602260); format: functional; conditions: read-out: IC50_Mean
[30] = biological target: T8, Dual specificity protein phosphatase 3 (Homo sapiens, UniProt P51452); experiment: VHR1 phosphatase inhibitors, biochemical (AID 1878)
T8 sequence (P51452 whole entry): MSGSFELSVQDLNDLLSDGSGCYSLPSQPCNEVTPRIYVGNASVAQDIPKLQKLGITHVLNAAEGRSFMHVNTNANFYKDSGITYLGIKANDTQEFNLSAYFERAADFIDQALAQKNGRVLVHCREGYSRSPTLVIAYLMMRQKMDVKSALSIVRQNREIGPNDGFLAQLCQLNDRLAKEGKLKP

[31] = biological target: T9, Dual specificity protein phosphatase 6 (Rattus norvegicus, UniProt Q64346); experiment: inhibition of rat DUSP6 enzyme activity – biochemical, in vitro, primary screen (AID 425)
T9 sequence (Q64346 whole entry): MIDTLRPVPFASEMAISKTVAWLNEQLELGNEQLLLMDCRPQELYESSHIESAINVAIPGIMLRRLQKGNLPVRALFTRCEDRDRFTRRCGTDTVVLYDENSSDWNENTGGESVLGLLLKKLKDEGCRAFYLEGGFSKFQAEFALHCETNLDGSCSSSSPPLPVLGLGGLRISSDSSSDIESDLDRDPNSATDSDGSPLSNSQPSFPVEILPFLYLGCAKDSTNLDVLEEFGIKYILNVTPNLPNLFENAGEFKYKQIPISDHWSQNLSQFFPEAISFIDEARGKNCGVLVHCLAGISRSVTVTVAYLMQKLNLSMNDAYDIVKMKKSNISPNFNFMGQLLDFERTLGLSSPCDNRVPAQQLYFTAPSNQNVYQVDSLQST

[32] = biological target: T8, Dual specificity protein phosphatase 3; experiment: VHR1 phosphatase inhibitors, primary screen, biochemical, absorbance, uHTS (AID 1654)

Structure (SMILES): O=C(Nc1nnc(-c2ccccc2Cl)o1)c1ccc(S(=O)(=O)N2CCCCCC2)cc1
- Ki [1]: > 66.7 µM (inactive)
- EC50 [2]: 266 nM (active)
- IC50 [3]: 14.2 µM (active)
- CC50 [4]: 3.49 µM (active)
- CC50 [5]: 7.66 µM (active)
- EC50 [6]: 793 nM (active)
- CC50 [7]: 4.8 µM (active)

Structure (SMILES): CC(C)(C)C1CCc2sc(C(=O)NNC(=O)CCl)cc2C1 (centres undefined)
- EC50 [8]: 1.75 µM (active)
- IC50 [9]: 3.86 µM (active)
- CC50 [10]: 3.58 µM (active)
- AC50 [11]: 4.29 µM (active)
- EC50 [12]: 1.47 µM (active)
- EC50 [13]: > 60 µM (inconclusive)

Structure (SMILES): O=C(Nc1ccncc1NC(=O)c1cccc([N+](=O)[O-])c1)c1cccc([N+](=O)[O-])c1
- IC50 [14]: 18.9 µM (active)
- IC50 [15]: > 50 µM (inactive)

Structure (SMILES): CC(C)(C)c1ccc(C(=O)Nc2cc(Cl)c(Br)cc2C(=O)O)cc1
- IC50 [16]: 0.976 µM (active)

Structure (SMILES): Cc1cccc2sc(N(CCN(C)C)C(=O)c3ccc4ccccc4c3)nc12
- AC50 [17]: > 100 µM (inactive)

Structure (SMILES): COc1ccc(C(=O)Nc2ccccc2C(=O)N/N=C/c2ccccn2)cc1OC
- EC50 [18]: > 31.5 µM (inactive)
- IC50 [3]: 36.9 µM (active)
- CC50 [4]: 5.29 µM (active)
- CC50 [5]: 14.3 µM (active)
- EC50 [19]: 16.6 µM (active)
- CC50 [7]: > 20 µM (active)
- pIC50 [20]: < 4.49
- EC50 [21]: 8.88 µM (active)
- EC50 [22]: 298 nM (active)
- EC50 [23]: 1.3 µM (active)
- AC50 [24]: 2.45 µM (active)
- IC50 [25]: 7.91 µM (active)

Structure (SMILES): OB1OCc2cc(C(F)(F)F)ccc21
- IC50 [16]: > 25 µM (inactive)

Structure (SMILES): Cc1c(/N=N/c2c(-c3ccc([N+](=O)[O-])cc3)[nH]n(C(N)=S)c2=O)cccc1[N+](=O)[O-]
- IC50 [26]: > 66 µM (inactive)
- IC50 [27]: 50 µM (inactive)
- IC50 [28]: 6.05 µM (active)
- IC50 [14]: 16.3 µM (active)
- IC50 [29]: > 66 µM (inactive)
- IC50 [30]: 1.71 µM (active)
- IC50 [31]: 7.01 µM (active)
- IC50 [15]: > 50 µM (inactive)
- IC50 [32]: 3.37 µM (active)
